Source: US20250295795A1, “PEPTIDE” (priority 2021, published 2025)

Experiments:
Assay type in all cases: cell-based, human
HeLa cells [1] = assay: Co-delivery of antibodies, antibody fragments and RFP into live Hela cells
From the text: Access to the cytosol by mechanisms that are independent of transmembrane pore formation constitutes a preferred method of co-delivery due to reduced toxicity to the cell. […] Successful delivery of Fab is indicated by homogenous distribution of AF647 signal in the cytosol and nucleus and is only observed in cells which have been transduced with tri-cTat B (FIG. 13). Time course of Fab uptake by tri-cTat B (FIG. 5c) follows a similar pattern as tri-cTat B alone (FIG. 3b, d). Tri-cTat B and Fab form large vesicle-like bodies that appear to release their contents into the cytosol of the cell; unambiguous cytosolic staining by Fab is observed from 23 min. Interaction between peptide trimer and biomacromolecule, mediated by charge-charge interactions is essential for the accumulation of both in endosomes and subsequent release and delivery of cargo into cells. Delivery of relatively β-sheet rich, neutrally charged recombinant RFP was unsuccessful (FIG. 16) due to a lack of association between tri-cTat B and cargo (FIG. 17). On the other hand, interaction diminishes the efficacy of the peptide trimer due to charge masking, emphasising the need to maintain an appropriate peptide to cargo ratio for a given macromolecule. Experiments to explore the efficacy of tri-cTat B in the presence of serum supplemented medium underline this principle; while tri-cTat B continues to function in the presence of serum, the number of transduced cells diminishes (42% (serum) vs. 61% (serum free)), but can be restored by increasing tri-cTat B concentration to 2 μM (79% (serum); FIG. 15). […] This is likely due to the larger size of antibodies and also to the observation that antibodies have a greater tendency to aggregate in the presence of tri-cTat B compared to Fab fragments. […] Finally, we investigated whether it is possible to deliver functional antibodies and antibody fragments into the cytosol and nuclei of cells. β-actin was chosen as a proof-of-principle protein because of its abundance in the cell and formation of distinctive subcellular filaments. To clearly identify actin filaments, Hela cells were transfected with red fluorescent protein fused to actin (actin-RFP) before being incubated with β-actin antibody (mouse IgG2b) or β-actin Fab fragment (mouse) conjugated to AF647 plus tri-cTat B for 30 min. After washing, cells were left for 60 min to allow IgG/Fab to bind to actin filaments. […] To enable objective quantification of co-localization between β-actin filaments and IgG/Fab fragment (white arrows), a co-localization threshold algorithm was used in selected regions of interest (ROI). Pearson's and Manders' coefficients were obtained under Costes' automatic threshold^32 and the co-localized pixels are shown as a mask of yellow pixels of constant intensity (co-localization panels). The significance of the co-localization parameters (Pearson's and Manders' coefficients) was evaluated using the confined displacement algorithm (CDA).
HeLa and CHO cells were cultured in DMEM supplemented with 10% FBS and penicillin/streptomycin. For post-wash experiments, Tat conjugate was added to the cells in serum free medium, cells incubated at 37° C. in an atmosphere of 5% CO2, culture medium removed at the desired time point, cells washed and transferred to the microscope for imaging. For time course or pre-wash experiments, cells were transferred to the microscope (incubation chamber at 37° C., 5% CO2) and Tat conjugate added directly to cell medium and cells imaged at desired time points. Co-delivery experiments were conducted by adding peptide trimer immediately followed by cargo into serum free medium. Samples were visualised using a Zeiss LSM 780 inverted confocal microscope fitted with a XLmultiS1 incubation chamber and Plan-Apochromat 63×/1.40 Oil DIC M27 objective. Images were analysed using ImageJ software. Digital adjustments and image processing are consistent throughout the manuscript, unless otherwise stated in the figure legend. […]

HeLa cells [2] = assay: Live cell confocal microscopy: cellular uptake and intracellular distribution of Tat conjugates in HeLa cells
Experimental: The cellular uptake and intracellular distribution of Tat-trimers and monomeric controls was investigated by performing live cell confocal microscopy of HeLa (human, cervical cancer) and CHO (Chinese hamster, […]). Following washing, images were acquired using a Zeiss 780 confocal microscope fitted with an incubation chamber (FIG. 2). In accordance with observations that free Tat in the cytosol readily enters the nucleus and strongly binds to nucleoli,^29 homogenous staining of cytoplasm and nucleoli were considered as indicative of cells having accumulated free conjugate, not confined to endosomes, for quantification purposes. […] The uptake and intracellular distribution of tri-Tat A is similar in live Hela and CHO cells (FIG. 2b,d,e).
Following washing, images were acquired using a Zeiss 780 confocal microscope fitted with an incubation chamber. In accordance with observations that free Tat in the cytosol readily enters the nucleus and strongly binds to nucleoli,^29 homogenous staining of cytoplasm and nucleoli were considered as indicative of cells having accumulated free conjugate, not confined to endosomes, for quantification purposes. The results were compared to tri-Tat A (8) and tri-cTat B (17).
(§1) HeLa and CHO cells were cultured in DMEM supplemented with 10% FBS and penicillin/streptomycin. For post-wash experiments, Tat conjugate was added to the cells in serum free medium, cells incubated at 37° C. in an atmosphere of 5% CO2, culture medium removed at the desired time point, cells washed and transferred to the microscope for imaging. For time course or pre-wash experiments, cells were transferred to the microscope (incubation chamber at 37° C., 5% CO2) and Tat conjugate added directly to cell medium and cells imaged at desired time points. Co-delivery experiments were conducted by adding peptide trimer immediately followed by cargo into serum free medium. Samples were visualised using a Zeiss LSM 780 inverted confocal microscope fitted with a XLmultiS1 incubation chamber and Plan-Apochromat 63×/1.40 Oil DIC M27 objective. Images were analysed using ImageJ software. Digital adjustments and image processing are consistent throughout the manuscript, unless otherwise stated in the figure legend. Statistical analysis was carried out using GraphPad Prism 7 software and all data used for statistical analysis consists of measurements from distinct cells. Where applicable a parametric, unpaired, two-tailed t-test was used for statistical testing.

HeLa cells [3] = assay: Time course of uptake in Hela cells (continuous live cell confocal microscopy, ROI profile analysis); conditions: 1 μM; representative cells
Experimental: To better understand the mechanism by which tri-Tat A and tri-cTat B enter the cytosol and the nucleus, we investigated the uptake kinetics of the conjugates during the first 15 min after their addition to Hela cells using confocal live cell microscopy. Tri-Tat A (FIG. 3a) or tri-cTat B (FIG. 3b) (1 μM) were added to the cells and images acquired from 1 min to 15 min at 60 sec intervals. The two trimers show distinct uptake patters into Hela cells; to better understand the difference in uptake kinetics, we drew cross sectional profile plots through representative cells treated with tri-Tat A (FIG. 3c) and tri-cTat B (FIG. 3d). […] To investigate whether findings in individual cells also apply to larger populations, we extended the plot profile analysis by designating regions of interest (ROI) corresponding to plasma membrane, cytosol (excluding endosomes), nucleus, and nucleoli along the cross section, using information from brightfield images.^30 Average fluorescence intensities for each ROI, at each time point, in six cells per treatment group were calculated and plotted in FIGS. 3e-3h.
as §1

SMILES: N=C(N)NCCC[C@@H]1NC(=O)[C@H](CCCNC(=N)N)NC(=O)[C@H](CCCNC(=N)N)NC(=O)[C@H](CCC(N)=O)NC(=O)[C@H](CCCNC(=N)N)NC(=O)[C@H](CCCNC(=N)N)NC(=O)[C@H](CCCCN)NC(=O)[C@H](CCCCN)NC(=O)[C@H](CCCNC(=N)N)NC(=O)[C@H](CCCCn2cc(COCC(COCc3cn(CCCCCCNC(=O)c4ccc5c(c4)C(=O)OC54c5ccc(N)c(S(=O)(=O)O)c5Oc5c4ccc(N)c5S(=O)(=O)O)nn3)(COCc3cn(CCCC[C@@H]4NC(=O)CC[C@@H](C(N)=O)NC(=O)[C@H](CCCNC(=N)N)NC(=O)[C@H](CCCNC(=N)N)NC(=O)[C@H](CCCNC(=N)N)NC(=O)[C@H](CCC(N)=O)NC(=O)[C@H](CCCNC(=N)N)NC(=O)[C@H](CCCNC(=N)N)NC(=O)[C@H](CCCCN)NC(=O)[C@H](CCCCN)NC(=O)[C@H](CCCNC(=N)N)NC4=O)nn3)COCc3cn(CCCC[C@@H]4NC(=O)CC[C@@H](C(N)=O)NC(=O)[C@H](CCCNC(=N)N)NC(=O)[C@H](CCCNC(=N)N)NC(=O)[C@H](CCCNC(=N)N)NC(=O)[C@H](CCC(N)=O)NC(=O)[C@H](CCCNC(=N)N)NC(=O)[C@H](CCCNC(=N)N)NC(=O)[C@H](CCCCN)NC(=O)[C@H](CCCCN)NC(=O)[C@H](CCCNC(=N)N)NC4=O)nn3)nn2)NC(=O)CC[C@@H](C(N)=O)NC1=O (stereo partly shown) [tri-cTat B]
- cells showing homogenous AF647 staining in cytosol and nucleus (whole IgG co-delivery) (HeLa cells [1]; 166 nM IgG-AF647 + 1 μM trimer, 45 min): approximately 20%
- cells with Fab delivered into cytosol and nucleus (HeLa cells [1]; 500 nM AF647-labelled non-specific mouse Fab + 1 μM trimer, 30 min): 50%
- time from which unambiguous cytosolic staining by Fab is observed (HeLa cells [1]; 500 nM Fab-AF647 + 1 μM trimer): 23 min
- delivery of recombinant RFP (HeLa cells [1]; 1 μM trimer + 1 or 2 μM recombinant RFP, 30 min, serum free): unsuccessful
- transduction efficacy in comparison (average fluorescence intensity per cell, percentage of transduced cells) (HeLa cells [2]; 1 μM, 60 min, serum-free): more effective at cellular transduction in comparison to tri-cTat A
- cellular uptake and intracellular distribution (HeLa cells [2]; HeLa cells, 1 μM, 60 min, serum-free DMEM, post-wash): taken up into the cytosol and nucleoli
- number of transduced cells (HeLa cells [2]; serum free, 1 μM): 61%
- number of transduced cells (HeLa cells [2]; serum supplemented medium, 1 μM, 60 min): 42%
- number of transduced cells (HeLa cells [2]; serum supplemented medium, 2 μM, 60 min): 79%
- association with plasma membrane (profile plots) (HeLa cells [3]): little association with plasma membrane
